Experimental findings from patent US8551937B2, “Peptide having an extending action for half-life of object peptide in plasma” (priority 2008, dated 2013) are described below.

The nature of series [1]: Comparison of half-life in plasma of native CNP-22, native CNP-53 and chimeric CNP (Example 12). The note with it: male, SD, rat, in vivo, iv, 20 nmol/kg, T½ Mean Value, intravenous, male rats, N = 3. Here is the method:
Changes in CNP immunoreactivity concentration in plasma when the native CNP-22 shown by SEQ ID No: 101 was administered either solely or jointly with neutral endo-peptidase (NEP) inhibitor and compared with changes in CNP immunoreactivity concentration in plasma when native CNP-53 (SEQ ID No: 159) and the chimeric CNP (D) (structure mentioned already) were intravenously administered.
The experiment was conducted using rats where polyethylene tube (PE-50, manufactured by Clay Adams) was previously inserted into thigh artery under the anesthetized condition with Nembutal. In the group where the native CNP-22 was administered either solely or jointly with an NEP inhibitor, the polyethylene tube (PE-10, manufactured by Clay Adams) was also inserted into the thigh vein. As to a test system, male SD rats (Nippon Charles River) of 7 weeks age were used where one group comprised three rats. As to the NEP inhibitor, DL-Thiorphan (manufactured by Sigma) was used and, during the period from 10 minutes before the initiation of administration of the native CNP-22 until 60 minutes after the initiation of the administration where collection of the blood finished, 5% mannitol (100 μL/min/body) or NEP inhibitor (30 μg/100 μL/min/body) was subjected to a constant-speed intravenous administration for 70 minutes using an Infusion Pump (CFV 2100, manufactured by Nippon Koden K. K.). Native CNP-22, native CNP-53 or chimeric CNP (D) was administered into tail vein in a dose of 20 nmol/kg each and blood over the time from before administration and 60 minutes after administration was collected from a polyethylene tube inserted into the thigh artery. To the collected blood were added EDTA (Dojin Laboratories) and aprotinin (manufactured by Bayer) as a stabilizer and an anti-coagulant, respectively and the plasma was separated by means of centrifugal separation. CNP immunoreactivity concentration in the plasma was measured by a competitive radioimmunoassay (RIA). At that time, a rabbit polyclonal antibody (#2) which specifically recognizes a ring part structure which is the common structure for native CNP-22 and native CNP-53 was used as an antibody while, as a labeling compound, ^125I-[Tyr^0] CNP-22 was used.

The target of series [2] is T1, NEP (Rattus norvegicus, UniProt P07861).
T1 construct: male SD strain rats of 7 weeks age (Nippon Charles River; body weight: ca. 250 g) were used; from tissue; host or cells: whole animal: male SD rats (Nippon Charles River), in vivo
T1 sequence (P07861 1-750): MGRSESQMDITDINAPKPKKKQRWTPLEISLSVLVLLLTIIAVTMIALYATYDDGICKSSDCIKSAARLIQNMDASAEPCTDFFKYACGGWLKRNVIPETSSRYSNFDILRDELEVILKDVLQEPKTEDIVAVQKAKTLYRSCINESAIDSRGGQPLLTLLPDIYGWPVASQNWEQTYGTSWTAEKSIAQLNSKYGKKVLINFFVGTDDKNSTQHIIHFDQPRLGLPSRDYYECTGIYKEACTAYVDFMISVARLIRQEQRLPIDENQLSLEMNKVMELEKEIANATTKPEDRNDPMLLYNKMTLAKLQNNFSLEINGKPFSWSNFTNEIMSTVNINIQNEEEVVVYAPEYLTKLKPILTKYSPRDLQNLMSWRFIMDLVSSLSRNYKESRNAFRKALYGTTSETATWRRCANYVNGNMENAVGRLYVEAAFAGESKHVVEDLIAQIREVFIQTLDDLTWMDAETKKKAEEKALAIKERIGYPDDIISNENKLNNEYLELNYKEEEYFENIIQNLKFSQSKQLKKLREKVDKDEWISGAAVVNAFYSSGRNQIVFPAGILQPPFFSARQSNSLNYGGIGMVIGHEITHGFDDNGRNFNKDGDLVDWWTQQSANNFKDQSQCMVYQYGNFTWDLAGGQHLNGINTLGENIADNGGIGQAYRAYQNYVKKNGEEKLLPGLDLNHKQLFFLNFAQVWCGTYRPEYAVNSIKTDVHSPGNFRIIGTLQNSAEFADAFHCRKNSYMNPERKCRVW
In words: NEP resistance in vivo: influence of NEP inhibitor on pharmacokinetic parameters after intravenous administration. The note with it: for AUC(0-inf) / C0 / half-life: male, SD, rat, in vivo, iv, 0.02 mg/kg, intravenous 0.02 mg/kg, male rats, N = 3; for AUC(0-inf): read-out: AUC0→∞ (converted); for C0: read-out: C0; for half-life: read-out: T½. Here is the method:
Further, NEP resistance in vivo of the native CNP-22 and chimeric CNP (B) was evaluated using the effect by the joint use with an NEP inhibitor affecting on changes in CNP immunoreactivity concentration in plasma after the intravenous administration as an index. This test was also carried out using rats into which a polyethylene tube (PE-50, manufactured by Clay […].) was inserted into thigh artery for collection of blood and rats into which a polyethylene tube (PE-10, manufactured by Clay […].) was inserted into thigh vein for administration of an NEP inhibitor under an anesthetizing condition using Nembutal. As a test system, male SD strain rats of 7 weeks age (Nippon Charles River; body weight: ca. 250 g) were used for the experiment where one group comprised 3 rats. […] Time for the administration was from 10 minutes before the administration of the native CNP-22 or the chimeric CNP (B) to completion of blood collection which was 60 minutes after the administration. The native CNP-22 and the chimeric CNP (B) each was administered into the tail vein in a dose of 20 μg/kg and the blood before starting the administration of NEP inhibitor (-10 minutes), before the administration of CNP (0 minute) and until after 60 minutes from the administration was collected by a thigh artery cannula. After a stabilizer and an anticoagulant were added to the collected blood, it was centrifuged to give plasma and the immunoreactivity concentration in the plasma was measured by the above-mentioned competitive RIA. The pharmacokinetic analysis was carried out by the same method as in Example 1.

In series [3] the target is T2, neutral endopeptidase (NEP) (Homo sapiens, UniProt P08473).
T2 construct: purchased R&D Systems, Inc., U.S.A
T2 sequence (P08473 whole entry): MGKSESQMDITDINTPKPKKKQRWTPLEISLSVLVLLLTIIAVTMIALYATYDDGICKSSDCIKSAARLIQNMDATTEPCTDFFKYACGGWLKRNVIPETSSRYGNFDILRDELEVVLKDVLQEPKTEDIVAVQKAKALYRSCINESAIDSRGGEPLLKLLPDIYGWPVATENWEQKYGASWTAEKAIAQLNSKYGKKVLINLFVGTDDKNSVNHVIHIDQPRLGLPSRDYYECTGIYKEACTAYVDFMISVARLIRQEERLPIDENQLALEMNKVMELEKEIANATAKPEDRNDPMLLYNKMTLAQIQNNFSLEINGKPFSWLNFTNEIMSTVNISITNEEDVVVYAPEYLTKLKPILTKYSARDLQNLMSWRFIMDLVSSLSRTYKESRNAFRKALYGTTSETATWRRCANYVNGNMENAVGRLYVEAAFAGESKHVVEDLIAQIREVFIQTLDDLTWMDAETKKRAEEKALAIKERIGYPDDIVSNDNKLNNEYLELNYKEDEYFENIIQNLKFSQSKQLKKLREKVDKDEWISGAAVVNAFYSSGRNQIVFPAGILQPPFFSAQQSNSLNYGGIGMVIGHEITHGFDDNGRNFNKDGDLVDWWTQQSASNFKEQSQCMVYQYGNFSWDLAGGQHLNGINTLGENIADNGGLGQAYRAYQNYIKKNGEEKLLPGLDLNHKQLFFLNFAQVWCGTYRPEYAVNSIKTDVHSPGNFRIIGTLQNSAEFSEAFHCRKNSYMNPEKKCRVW
In words: Resistance to peptidase: stability to hNEP (HPLC residual rate). The conditions noted are these: human, isolated enzyme neprilysin; hNEP, 37° C., 1 hour, 0.5 μg/mL, 20 mM MES pH 6.5, mean of N = 2; read-out: Residual Rate. The format is in vitro ADME. Here is the method: The experiment was conducted in N=2 for each sample. Native CNP-22, chimeric CNP (A, B) (structure mentioned already; final concentration: 0.5 μg/mL) and 100 μL of reaction solution (medium: 20 mM MES, pH 6.5) of human type recombinant neutral endopeptidase (hNEP, manufactured by R&D Systems, Inc., U.S.A.) were prepared. […] Distilled water (100 μL) was added to the sample after boiling followed by well mixing and 50 μL thereof was analyzed in a water-acetonitrile system using a high-performance liquid chromatography system LC-10A (manufactured by Shimadzu). The analytical data were analyzed by a Chromato-Pack (CRA-10A, manufactured by Shimadzu) and area of the peak zone of unchanged substance was calculated. The area of average zone of unchanged substance when made to react at 37° C. was divided by the area of average zone of the boiled sample to calculate the residual rate of the unchanged substance after 1 hour.

Where two headings read alike, the source gives them in different places.

`CC[C@H](C)[C@@H]1NC(=O)[C@H](CCCNC(=N)N)NC(=O)[C@H](CC(=O)O)NC(=O)[C@H](CC(C)C)NC(=O)[C@H](CCCCN)NC(=O)[C@H](CC(C)C)NC(=O)CNC(=O)[C@H](Cc2ccccc2)NC(=O)[C@@H](NC(=O)CNC(=O)[C@H](CCCCN)NC(=O)[C@H](CO)NC(=O)[C@H](CC(C)C)NC(=O)CN)CSSC[C@@H](C(=O)O)NC(=O)CNC(=O)[C@H](CC(C)C)NC(=O)CNC(=O)[C@H](CO)NC(=O)[C@H](CCSC)NC(=O)[C@H](CO)NC(=O)CNC1=O` [Native CNP-22]: the half-life in series [1] (Joint Use with NEP Inhibitor: no) was 1.11 min. Besides, the half-life in series [1] (Joint Use with NEP Inhibitor: yes (DL-Thiorphan)) turned out to be 16.2 min. Also, in series [2] (intravenous, rats), the “AUC with NEP inhibitor as compared with the case where the inhibitor was not used” value is reported as “about 3.7 fold” and the “half-life with NEP inhibitor as compared with the case where the inhibitor was not used” value is on record as “about 5 fold”. In addition, in series [2] (NEP Inhibitor (+)), the AUC(0-inf) is 12.6 ng·h/mL, the C0 was 131 ± 32 ng/mL and the half-life was determined as 9.94 ± 1.4 min. In addition, in series [2] (NEP Inhibitor (−)), the AUC(0-inf) is 3.37 ng·h/mL, the C0 was determined as 145 ± 20 ng/mL and the half-life was found to be 1.96 ± 0.05 min. The remaining at 1 h, 0.5 μg/mL in series [3] was found to be 16.7%.
